Source: patent US8158828B2, “Nuclear receptor binding agents” (priority 2005, dated 2012)
“Also recorded” adds a separate entry of the source.

Key:
Type in all cases: cell-based
AR = target: T1, AR (Rattus norvegicus, UniProt P15207); assay: AR transactivation, ARE-LUC in COS cells
T1 construct: expressed in transfected cells; host or cells: COS cells
T1 sequence (P15207 1-902): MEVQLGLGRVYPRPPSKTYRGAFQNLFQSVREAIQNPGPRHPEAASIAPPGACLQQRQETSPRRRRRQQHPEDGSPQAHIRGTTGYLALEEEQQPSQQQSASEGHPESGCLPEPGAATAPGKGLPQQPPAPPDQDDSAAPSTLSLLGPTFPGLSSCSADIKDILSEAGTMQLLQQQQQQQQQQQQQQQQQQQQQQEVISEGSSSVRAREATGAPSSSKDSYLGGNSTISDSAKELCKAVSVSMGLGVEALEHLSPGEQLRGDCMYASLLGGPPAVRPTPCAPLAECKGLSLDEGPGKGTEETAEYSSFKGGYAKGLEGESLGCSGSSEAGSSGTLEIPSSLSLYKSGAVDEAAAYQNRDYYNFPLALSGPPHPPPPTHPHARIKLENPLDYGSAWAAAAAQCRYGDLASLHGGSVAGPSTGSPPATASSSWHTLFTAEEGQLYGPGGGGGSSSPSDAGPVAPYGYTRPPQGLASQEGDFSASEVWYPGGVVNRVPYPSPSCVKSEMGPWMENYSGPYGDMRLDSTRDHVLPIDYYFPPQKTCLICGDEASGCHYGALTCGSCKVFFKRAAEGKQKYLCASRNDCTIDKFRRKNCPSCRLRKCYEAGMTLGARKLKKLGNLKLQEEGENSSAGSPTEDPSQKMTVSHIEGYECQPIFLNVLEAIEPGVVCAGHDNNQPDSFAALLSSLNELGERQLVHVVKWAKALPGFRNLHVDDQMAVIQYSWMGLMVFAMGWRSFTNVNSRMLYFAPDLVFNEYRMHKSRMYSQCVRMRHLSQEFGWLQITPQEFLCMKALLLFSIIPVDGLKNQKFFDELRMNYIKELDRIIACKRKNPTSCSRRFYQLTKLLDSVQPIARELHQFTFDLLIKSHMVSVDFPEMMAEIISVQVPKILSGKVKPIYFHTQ
Procedure: FIG. 3: Effect of the indicated compounds on AR transactivation. COS cells plated in DME without phenol red+10% csFBS at 90,000 cells per well of a 24 well plate were transfected with 0.25 μg ARE-LUC, 0.02 μg CMV-LUC (Renilla) and 12.5 ng of AR by lipofectamine. Twenty four hours after transfection, the cells were treated as indicated in the figure, harvested 48 hrs after transfection and were assayed for firefly and renilla luciferase.
Also 25 ng of ER-α (FIGS. 1, 5, and 9), 50 ng of ER-β (FIGS. 2, 6 and 10) or 12.5 ng of AR (FIG. 3) were introduced by lipofectamine. All the receptors were cloned from rat tissue into the PCR3.1 vector backbone. […] Cells were harvested 48 hrs after transfection, and assayed for firefly and Renilla luciferase activity.

ER-α = target: T2, ER-α (Rattus norvegicus, UniProt P06211); assay: ER-α transactivation, ERE-LUC in COS or 293 cells; design: % estardiol activity, ER-α: dose or concentration left out as unconfirmed; settings: for inhibition of estradiol (E2) induced ER-α activity (luciferase expression): with estrogen
T2 sequence (P06211 1-600): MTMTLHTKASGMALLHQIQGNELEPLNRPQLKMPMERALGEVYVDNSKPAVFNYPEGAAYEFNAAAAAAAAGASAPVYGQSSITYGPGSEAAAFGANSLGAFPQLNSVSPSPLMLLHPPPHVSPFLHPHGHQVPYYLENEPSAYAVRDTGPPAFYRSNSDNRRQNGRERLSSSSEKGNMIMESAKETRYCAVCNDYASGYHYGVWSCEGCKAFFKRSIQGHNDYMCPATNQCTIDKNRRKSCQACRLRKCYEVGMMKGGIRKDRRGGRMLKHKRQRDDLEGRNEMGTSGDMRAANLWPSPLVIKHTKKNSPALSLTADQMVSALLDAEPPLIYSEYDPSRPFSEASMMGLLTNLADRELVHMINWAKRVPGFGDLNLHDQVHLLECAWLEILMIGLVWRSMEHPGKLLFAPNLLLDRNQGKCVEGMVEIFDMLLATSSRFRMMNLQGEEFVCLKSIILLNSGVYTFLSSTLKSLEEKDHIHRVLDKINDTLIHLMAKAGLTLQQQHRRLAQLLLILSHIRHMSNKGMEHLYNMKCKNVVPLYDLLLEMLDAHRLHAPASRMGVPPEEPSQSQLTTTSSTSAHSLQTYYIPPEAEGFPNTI

[1] = tested on: pS2 (gene encoding the trefoil peptides) in MCF-7 cells; assay: pS2 gene expression in MCF-7 cells (realtime RT-PCR)
Procedure: MCF-7 cells were plated at 500,000 cells per well of a 6 well plate. RNA was isolated and the message levels of pS2 (gene encoding the trefoil peptides) measured and normalized to 18S ribosomal RNA by realtime polymerase chain reaction (rtPCR).
FIG. 11: Agonistic activity of the indicated compounds in MCF-7 cells. MCF-7 cells were plated at 500,000 cells per well of a 6 well plate. RNA was isolated and the message levels of pS2 gene measured and normalized to 18S ribosomal RNA by realtime rtPCR.
MCF-7 cells were plated at 500,000 cells per well of a 6 well plate. The cells were serum starved for 3 days and then were treated as above for 16 hrs. RNA was isolated and gene expression levels assessed by realtime RT-PCR, following normalization to 18S ribosomal RNA.

Row | Compound | AR LUC expression, compound alone (AR) | inhibition of DHT-induced AR activation (AR; with DHT) | % estardiol activity, ER-α (ER-α) | ER-α activity (luciferase expression), compound alone (ER-α; COS or 293 cells) | inhibition of estradiol (E2) induced ER-α activity (luciferase expression) (ER-α; COS or 293 cells) | IC50 (ER-α; ER alpha antagonists) | pS2 expression ([1]; 16 hrs) | inhibition of estrogen-induced upregulation of pS2 gene expression ([1]; with estrogen)
1 | O=C(c1ccccc1)N(c1ccc(O)cc1)c1ccc(OCCN2CCCCC2)cc1 [Compound 4a, N-(4-hydroxyphenyl)-N-[4-(2-piperidin-1-ylethoxy)-phenyl]-benzamide] | no effect on LUC expression | nor did it inhibit DHT-induced AR activation | 29.9% | no effect on ER-α activity; also recorded: neither SERM alone showed any such effect | inhibited the estradiol (E2) induced ER-α activity to basal levels; also recorded: inhibited estrogen stimulated luciferase expression | 35 nM | only minimally did so; also recorded: partial agonist of ER action in MCF-7 cells | inhibited estrogen-induced upregulation of pS2 gene expression
2 | Cl.O=C(c1ccc(F)cc1)N(c1ccc(O)cc1)c1ccc(OCCN2CCCCC2)cc1 [Compound 4h, N-(4-hydroxyphenyl)-N-[4-(2-piperidin-1-ylethoxy)-phenyl]-4-fluroro-benzamide hydrochloride] | – | – | 17.4% | – | inhibited estrogen stimulated luciferase expression | – | – | –
